Experimental data taken from PMC9610943, “Truncated Pleurocidin Derivative with High Pepsin Hydrolysis Resistance to Combat Multidrug-Resistant Pathogens” (Pharmaceutics, 2022).
Where no end group is shown, it is not given here.

How the values were obtained:
E. coli B2 = format: cell-based
Experimental: (§1) The MICs of all drugs were determined by micro-broth dilution method according to CLSI 2018 guidelines. Briefly, a single colony of the bacterial strain was transferred to 1 mL of Mueller Hilton broth (MHB) and overnight at 37 °C and then 10 μL were cultured in a new 1 mL medium for 4 to 6 h, and then the bacterial culture at the logarithmic phase was diluted to 1 × 10^6 CFUs/mL. The assay was performed by adding 100 μL of each peptide solution at various concentrations (0.25 to 128 μg/mL) and 100 μL of diluted bacterial culture to different wells of a 96-well microtiter plate (Corning, NY, USA). After incubation at 37 °C for 16 to 18 h and then read its MIC value. MIC value is defined as the lowest drug concentration without visible bacteria.
(§2) Then, the antibacterial activity of the peptides affected by different temperatures and pH were determined according to the determination steps of MICs test.
(§3) In MHB medium, Na^+, K^+, Mg^2+ and Ca^2+ with the final concentrations of 10 mM, fetal bovine serum, plasma or DMEM medium (Hyclone, Logan, UT, USA) with the final concentrations of 10% was added, and then MIC values were measured to evaluate the effects of different cations, serum and plasma on the antibacterial activity of peptides.
(§4) The peptide was incubated with protease (pepsin, trypsin and papain) (Solarbio, Beijing, China) with a final concentration of 1 mg/mL at 37 °C for 1 h, then the mixture of peptide and protease was heated at 100 °C for 30 min, then centrifuged at 13,000× g for 30 min, and the supernatant was taken for MIC determination.

MRSA T144 [1] = format: cell-based, Staphylococcus aureus
Experimental: as §1, §2, §3, §4

[2] = tested on: P. cibarius HNCF44W (blaNDM-1+ tet(X6)); experiment: organism not typed; format: cell-based
Experimental: (§5) S. aureus ATCC 29213, E. coli ATCC 25922, S. enteritidis ATCC 13076 and A. baumannii ATCC 19609 were obtained from the American Type Culture Collection (ATCC). The remaining strains used in the experiment were all preserved strains in our laboratory. All strains were cultured in nutrient broth overnight to the logarithmic phase at 37 °C prior to each experiment.
as §1

MRSA T144 [3] = experiment: microbe, parasite or virus in culture; format: cell-based, Staphylococcus aureus; conditions: T144
Experimental: as §5, §1

MRSA 1530 = experiment: microbe, parasite or virus in culture; format: cell-based, Staphylococcus aureus; conditions: 1530
Experimental: as §5, §1

E. coli C3 (blaNDM-1) = experiment: microbe, parasite or virus in culture; format: cell-based; conditions: C3 (blaNDM-1)
Experimental: as §5, §1

E. coli ATCC 25922 = experiment: microbe, parasite or virus in culture; format: cell-based; conditions: ATCC 25922
Experimental: as §5, §1

E. coli G92 (mcr-1) = experiment: microbe, parasite or virus in culture; format: cell-based; conditions: G92 (mcr-1)
Experimental: as §5, §1

[4] = tested on: P. aeruginosa (VIM + tmexCD1-torJ1); experiment: microbe, parasite or virus in culture; format: cell-based; conditions: VIM + tmexCD1-torJ1
Experimental: as §5, §1

E. coli CP131 (mcr-3) = experiment: microbe, parasite or virus in culture; format: cell-based; conditions: CP131 (mcr-3)
Experimental: as §5, §1

S. aureus ATCC 29213 = experiment: microbe, parasite or virus in culture; format: cell-based; conditions: ATCC 29213
Experimental: as §5, §1

[5] = tested on: E. coli B2 (blaNDM-5 + mcr-1); experiment: microbe, parasite or virus in culture; format: cell-based; conditions: B2 (blaNDM-5 + mcr-1)
Experimental: as §5, §1

E. coli 1F28 (tet(X4)) = experiment: microbe, parasite or virus in culture; format: cell-based; conditions: 1F28 (tet(X4))
Experimental: as §5, §1

P. aeruginosa PA14 = experiment: microbe, parasite or virus in culture; format: cell-based; conditions: PA14
Experimental: as §5, §1

[6] = tested on: S. enteritidis ATCC 13076; experiment: microbe, parasite or virus in culture; format: cell-based; conditions: ATCC 13076
Experimental: as §5, §1

[7] = tested on: S. aureus 215 (cfr + LZD^R); experiment: microbe, parasite or virus in culture; format: cell-based; conditions: S. aureus 215 (cfr + LZD^R); micro-broth dilution CLSI 2018, MHB, 37 °C, 16 to 18 h
Experimental: as §5, §1

E. coli B3-1 (tet(X4)) = experiment: microbe, parasite or virus in culture; format: cell-based; conditions: B3-1 (tet(X4))
Experimental: as §5, §1

E. coli G6 (blaNDM-5) = experiment: microbe, parasite or virus in culture; format: cell-based; conditions: G6 (blaNDM-5)
Experimental: as §5, §1

S. aureus G16 (RIF^R) = experiment: microbe, parasite or virus in culture; format: cell-based; conditions: S. aureus G16 (RIF^R); micro-broth dilution CLSI 2018, MHB, 37 °C, 16 to 18 h
Experimental: as §5, §1

A. baumannii ATCC 19609 = experiment: microbe, parasite or virus in culture; format: cell-based; conditions: ATCC 19609
Experimental: as §5, §1

[8] = tested on: E. faecalis A4 (VRE, VanA); experiment: microbe, parasite or virus in culture; format: cell-based; conditions: A4 (VRE, VanA)
Experimental: as §5, §1

GWKSFFKKFKHVWK [GK-3] was tested, and the “MIC after treatment at 121 °C” value (E. coli B2; B2) was 4 µg/mL, the “MIC in DMEM (10%)” value (E. coli B2; B2) was 4 µg/mL and the “MIC in Plasma (10%)” value (E. coli B2; B2) was 0.5 µg/mL. The “MIC in Serum (10%)” value (E. coli B2; B2) was 8 µg/mL, the “MIC in presence of Ca^2+” value (E. coli B2; B2) was >128 µg/mL and the “MIC in presence of K^+” value (E. coli B2; B2) was 2 µg/mL. The “MIC in presence of Mg^2+” value (E. coli B2; B2) was 32 µg/mL, the “MIC in presence of Na^+” value (E. coli B2; B2) was 2 µg/mL and the “MIC, Control” value (E. coli B2; B2) was 4 µg/mL. For the same sequence, the “MIC after Papain treatment” value (E. coli B2; B2, 1 h) was >128 µg/mL, the “MIC after Pepsin treatment” value (E. coli B2; B2, 1 h) was 64 µg/mL and the “MIC after Trypsin treatment” value (E. coli B2; B2, 1 h) was >128 µg/mL. For the same sequence, the “MIC after treatment at 40 °C” value (E. coli B2; B2, 1 h) was 2 µg/mL, the “MIC after treatment at 60 °C” value (E. coli B2; B2, 1 h) was 2 µg/mL and the “MIC after treatment at 80 °C” value (E. coli B2; B2, 1 h) was 2 µg/mL. For the same sequence, the “MIC after treatment at 100 °C” value (E. coli B2; B2, 1 h) was 4 µg/mL, the “MIC after treatment at pH 2” value (E. coli B2; B2, 1 h, pH 2) was 4 µg/mL and the “MIC after treatment at pH 4” value (E. coli B2; B2, 1 h, pH 4) was 2 µg/mL. The “MIC after treatment at pH 6” value (E. coli B2; B2, 1 h, pH 6) was 2 µg/mL, the “MIC after treatment at pH 8” value (E. coli B2; B2, 1 h, pH 8) was 2 µg/mL and the “MIC after treatment at pH 10” value (E. coli B2; B2, 1 h, pH 10) was 2 µg/mL. For the same sequence, the “MIC after treatment at pH 12” value (E. coli B2; B2, 1 h, pH 12) was 2 µg/mL, the “MIC after treatment at 121 °C” value (MRSA T144 [1]; T144) was 8 µg/mL and the “MIC in DMEM (10%)” value (MRSA T144 [1]; T144) was 4 µg/mL. For the same sequence, the “MIC in Plasma (10%)” value (MRSA T144 [1]; T144) was 4 µg/mL, the “MIC in Serum (10%)” value (MRSA T144 [1]; T144) was 8 µg/mL and the “MIC in presence of Ca^2+” value (MRSA T144 [1]; T144) was >128 µg/mL. For the same sequence, the “MIC in presence of K^+” value (MRSA T144 [1]; T144) was 4 µg/mL, the “MIC in presence of Mg^2+” value (MRSA T144 [1]; T144) was 8 µg/mL and the “MIC in presence of Na^+” value (MRSA T144 [1]; T144) was 2 µg/mL. For the same sequence, the “MIC, Control” value (MRSA T144 [1]; T144) was 8 µg/mL, the “MIC after Papain treatment” value (MRSA T144 [1]; T144, 1 h) was >128 µg/mL and the “MIC after Pepsin treatment” value (MRSA T144 [1]; T144, 1 h) was 64 µg/mL. For the same sequence, the “MIC after Trypsin treatment” value (MRSA T144 [1]; T144, 1 h) was >128 µg/mL, the “MIC after treatment at 40 °C” value (MRSA T144 [1]; T144, 1 h) was 4 µg/mL and the “MIC after treatment at 60 °C” value (MRSA T144 [1]; T144, 1 h) was 2 µg/mL. For the same sequence, the “MIC after treatment at 80 °C” value (MRSA T144 [1]; T144, 1 h) was 4 µg/mL, the “MIC after treatment at 100 °C” value (MRSA T144 [1]; T144, 1 h) was 8 µg/mL and the “MIC after treatment at pH 2” value (MRSA T144 [1]; T144, 1 h, pH 2) was 4 µg/mL. The “MIC after treatment at pH 4” value (MRSA T144 [1]; T144, 1 h, pH 4) was 4 µg/mL, the “MIC after treatment at pH 6” value (MRSA T144 [1]; T144, 1 h, pH 6) was 4 µg/mL and the “MIC after treatment at pH 8” value (MRSA T144 [1]; T144, 1 h, pH 8) was 4 µg/mL. For the same sequence, the “MIC after treatment at pH 10” value (MRSA T144 [1]; T144, 1 h, pH 10) was 4 µg/mL, the “MIC after treatment at pH 12” value (MRSA T144 [1]; T144, 1 h, pH 12) was 4 µg/mL and the MIC [2] was 8 µg/mL. The MIC (MRSA T144 [3]) was 8 µg/mL, the MIC (MRSA 1530) was 16 µg/mL and the MIC (E. coli C3 (blaNDM-1)) was 4 µg/mL. The MIC (E. coli ATCC 25922) was 8 µg/mL, the MIC (E. coli G92 (mcr-1)) was 2 µg/mL and the MIC [4] was 16 µg/mL. For the same sequence, the MIC (E. coli CP131 (mcr-3)) was 2 µg/mL, the MIC (S. aureus ATCC 29213) was 4 µg/mL and the MIC [5] was 4 µg/mL. For the same sequence, the MIC (E. coli 1F28 (tet(X4))) was 16 µg/mL, the MIC (P. aeruginosa PA14) was 64 µg/mL and the MIC [6] was 4 µg/mL. For the same sequence, the MIC [7] was 4 µg/mL, the MIC (E. coli B3-1 (tet(X4))) was 2 µg/mL and the MIC (E. coli G6 (blaNDM-5)) was 4 µg/mL. For the same sequence, the MIC (S. aureus G16 (RIF^R)) was 8 µg/mL, the MIC (A. baumannii ATCC 19609) was 4 µg/mL and the MIC [8] was 32 µg/mL.
